Source: PubChem BioAssay (NCI)
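Interpolation was linear, between the two tested concentrations surrounding the appropriate level; five concentrations were tested over 48 hours in 96-well plates. The concentration for 50% growth inhibition is given as GI50. At the TGI there is no net growth.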

Assays:
Assay in all cases: DTP human tumour cell line panel, 48 h
NCI-H23 lung = system: NCI-H23 lung
HCT-116 colon = system: HCT-116 colon
SW-620 colon = system: SW-620 colon
MALME-3M melanoma = system: MALME-3M melanoma
HCC-2998 colon = system: HCC-2998 colon
OVCAR-5 ovarian = system: OVCAR-5 ovarian
COLO 205 colon = system: COLO 205 colon
SF-268 CNS = system: SF-268 CNS
OVCAR-4 ovarian = system: OVCAR-4 ovarian
MDA-MB-231 breast = system: MDA-MB-231 breast

SMILES	TGI (NCI-H23 lung) [µM]	TGI (HCT-116 colon) [µM]	TGI (SW-620 colon) [µM]	TGI (MALME-3M melanoma) [µM]	TGI (HCC-2998 colon) [µM]	TGI (OVCAR-5 ovarian) [µM]	TGI (COLO 205 colon) [µM]	TGI (SF-268 CNS) [µM]	TGI (OVCAR-4 ovarian) [µM]	GI50 (NCI-H23 lung) [µM]	GI50 (SW-620 colon) [µM]	GI50 (MALME-3M melanoma) [µM]	GI50 (HCC-2998 colon) [µM]	GI50 (MDA-MB-231 breast) [µM]	TGI (MDA-MB-231 breast) [µM]	GI50 (OVCAR-5 ovarian) [µM]	GI50 (SF-268 CNS) [µM]	GI50 (OVCAR-4 ovarian) [µM]
CC(C)N(C(=O)C1(C)CC1)C(C)C	> 100	> 100	> 100	> 100	> 100	> 100	> 100	> 100	> 100	–	–	–	–	–	–	–	–	–
C[N+](C)(C)CC(=O)N/N=C(\CCC(=O)NCCc1ccccc1)CC(=O)c1ccccc1	> 100	> 100	> 100	> 100	> 100	> 100	> 100	> 100	> 100	–	–	–	–	–	–	–	–	–
NCCCCCCCCn1c2c(c3ccccc3c1=O)C(=O)c1ccccc1-2	21.6	–	3.34	8.86	3.75	7.89	–	> 100	27.4	4.57	1.8	2.85	1.89	2.12	5.73	2.67	6.44	4.34
CCOC(=O)C[C@@H](C)[C@]1(C(=O)OC)CCCC1=O	> 100	> 62.6	> 100	> 100	> 100	> 100	> 84.2	> 100	> 100	–	–	–	–	–	–	–	–	–
COc1cc(Br)c(CC2(C#N)c3ccccc3C3C(N2C(=O)c2ccccc2)C3(Cl)Cl)cc1OC (centres undefined)	> 65.5	> 65.5	> 65.5	> 65.5	> 65.5	> 65.5	> 65.5	> 65.5	–	–	–	–	–	–	–	–	–	–
O=C1Nc2cc(Cl)ccc2N=CC1NC(=O)C(c1ccccc1)c1ccccc1Cl (centres undefined)	> 100	> 100	> 100	> 100	> 100	> 100	> 100	> 100	> 100	–	–	–	–	–	–	–	–	–
CCC(=O)C1(c2ccccc2)CCN(C)CC1	> 100	> 100	> 100	> 100	> 100	> 100	> 100	> 100	> 100	–	–	–	–	–	–	–	–	–
CCCCCCCCCCCCCCCCOCC(CN(C)CCN(C)C)OCCCCCCCCCCCCCCCC (centres undefined)	> 100	> 100	> 100	> 100	> 100	> 100	> 100	> 100	> 100	–	–	–	–	–	–	–	–	–
Nc1nc(Cl)cc(NCCCCCNc2cc(Cl)nc(N)n2)n1	> 100	> 100	> 100	–	> 100	> 100	> 100	> 100	> 100	–	–	–	–	–	–	–	–	–
C=CCCOC(=O)CO[N+](=O)[O-]	> 100	> 100	> 100	> 100	> 100	> 100	> 100	> 100	> 100	–	–	–	–	–	–	–	–	–
COc1cc(OC)c2ssc3c(OC)cc(OC)c4ssc1c2-c43	> 100	> 100	> 100	> 100	> 100	> 100	> 100	> 100	> 100	–	–	–	–	–	–	–	–	–
